Several values for one entry are separate records, joined by “and”; a condition that tells them apart may be missing. Equal entries are not always repeated. Inconclusive results and toxic doses are left out.
Tested on: L1210 leukemia ip in BDF1 mice, survival T/C
Assay: NCI In Vivo Anticancer Drug Screen. Data for tumor model L1210 Leukemia (intraperitoneal) in B6D2F1 (BDF1) mice
Details: endpoint: mean survival time, higher = longer survival
Summary of the method: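 Transplantable tumor model; survival measured in treated vs vehicle control mice. Value = treated/control.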

[1] = dose: 12.5 mg/kg/injection, schedule: Q01DX001 (ip), vehicle: saline
[2] = dose: 25.0 mg/kg/injection, schedule: Q01DX001 (ip), vehicle: saline
[3] = dose: 50.0 mg/kg/injection, schedule: Q01DX001 (ip), vehicle: saline
[4] = dose: 100.0 mg/kg/injection, schedule: Q04DX003 (ip), vehicle: saline with Tween-80
[5] = dose: 200.0 mg/kg/injection, schedule: Q04DX003 (ip), vehicle: saline with Tween-80
[6] = dose: 400.0 mg/kg/injection, schedule: Q04DX003 (ip), vehicle: saline with Tween-80
[7] = dose: 100.0 mg/kg/injection, schedule: Q01DX009 (ip), vehicle: saline with Tween-80
[8] = dose: 200.0 mg/kg/injection, schedule: Q01DX009 (ip), vehicle: saline with Tween-80
[9] = dose: 100.0 mg/kg/injection, schedule: Q01DX001 (ip), vehicle: saline
[10] = dose: 200.0 mg/kg/injection, schedule: Q01DX001 (ip), vehicle: saline
[11] = dose: 100.0 mg/kg/injection, schedule: Q01DX009 (ip), vehicle: Klucel (hydroxypropylcellulose) (HPC)
[12] = dose: 200.0 mg/kg/injection, schedule: Q01DX009 (ip), vehicle: Klucel (hydroxypropylcellulose) (HPC)
[13] = dose: 400.0 mg/kg/injection, schedule: Q01DX009 (ip), vehicle: saline with Tween-80

With CCOC(=O)c1cnc(SCc2ccccc2Cl)nc1N1CC1 the T/C [1] was 100 % of control, the T/C (dose: 12.5 mg/kg/injection, schedule: Q04DX003 (ip), vehicle: saline) was 100 % of control and the T/C [2] was 98 % of control. The T/C (dose: 25.0 mg/kg/injection, schedule: Q04DX003 (ip), vehicle: saline) was 101 % of control, the T/C (dose: 28.05 mg/kg/injection, schedule: Q01DX009 (ip), vehicle: acetone) was 92 % of control and the T/C (dose: 42.5 mg/kg/injection, schedule: Q01DX009 (ip), vehicle: acetone) was 112 % of control. For the same compound, the T/C [3] was 98 % of control, the T/C (dose: 50.0 mg/kg/injection, schedule: Q04DX003 (ip), vehicle: saline) was 98 % of control and 100 % of control and 113 % of control and the T/C (dose: 63.75 mg/kg/injection, schedule: Q01DX009 (ip), vehicle: acetone) was 117 % of control. The T/C (dose: 75.0 mg/kg/injection, schedule: Q04DX003 (ip), vehicle: saline) was 102 % of control and 117 % of control, the T/C (dose: 110.0 mg/kg/injection, schedule: Q04DX003 (ip), vehicle: saline) was 104 % of control and 120 % of control and the T/C (dose: 115.0 mg/kg/injection, schedule: Q04DX003 (ip), vehicle: saline) was 122 % of control. The T/C (dose: 170.0 mg/kg/injection, schedule: Q04DX003 (ip), vehicle: saline) was 115 % of control.
For O=C(C1=CC=CC1=P(c1ccccc1)(c1ccccc1)c1ccccc1)C(Cl)(Cl)Cl, the T/C [4] was 96 % of control, the T/C [5] was 95 % of control and the T/C [6] was 96 % of control.
For O=C(OC1COC(O)C(OC(=O)c2ccccc2)C1OC(=O)c1ccccc1)c1ccccc1 (stereo unspecified), the T/C (dose: 100.0 mg/kg/injection, schedule: Q01DX001 (ip), vehicle: saline with Tween-80) was 101 % of control and the T/C (dose: 200.0 mg/kg/injection, schedule: Q01DX001 (ip), vehicle: saline with Tween-80) was 93 % of control.
With CC(C)=CCNc1ncnc2c1nnn2C1OC(CO)C(O)C1O (stereo unspecified) the T/C (dose: 100.0 mg/kg/injection, schedule: Q01DX001 (ip), vehicle: water) was 105 % of control, the T/C (dose: 200.0 mg/kg/injection, schedule: Q01DX001 (ip), vehicle: water) was 101 % of control and the T/C (dose: 400.0 mg/kg/injection, schedule: Q01DX001 (ip), vehicle: water) was 101 % of control.
O=C(NCCCl)Nc1cccnc1 was tested, and the T/C (dose: 6.25 mg/kg/injection, schedule: Q01DX009 (ip), vehicle: saline) was 104 % of control, the T/C (dose: 12.5 mg/kg/injection, schedule: Q01DX009 (ip), vehicle: saline) was 101 % of control and the T/C (dose: 12.5 mg/kg/injection, schedule: Q04DX003 (ip), vehicle: saline with Tween-80) was 102 % of control. For the same compound, the T/C (dose: 25.0 mg/kg/injection, schedule: Q01DX009 (ip), vehicle: saline) was 105 % of control and the T/C (dose: 25.0 mg/kg/injection, schedule: Q04DX003 (ip), vehicle: saline with Tween-80) was 96 % of control.
With O=c1cnc2ccccc2[nH]1 the T/C [4] was 108 % of control and the T/C [5] was 97 % of control.
In the case of Nc1nc(N)c2nc(CNc3ccc(C(=O)NC(CCC(=O)O)C(=O)O)nc3)cnc2n1 (stereo unspecified), the T/C (dose: 0.44 mg/kg/injection, schedule: Q01DX009 (ip), vehicle: Klucel (hydroxypropylcellulose) (HPC)) is reported as 169 % of control, the T/C (dose: 0.66 mg/kg/injection, schedule: Q01DX009 (ip), vehicle: Klucel (hydroxypropylcellulose) (HPC)) is reported as 168 % of control and the T/C (dose: 75.0 micrograms/kg/injection, schedule: Q01DX009 (ip), vehicle: Klucel (hydroxypropylcellulose) (HPC)) is reported as 119 % of control. For the same compound, the T/C (dose: 100.0 micrograms/kg/injection, schedule: Q01DX009 (ip), vehicle: Klucel (hydroxypropylcellulose) (HPC)) was 150 % of control, the T/C (dose: 150.0 micrograms/kg/injection, schedule: Q01DX009 (ip), vehicle: Klucel (hydroxypropylcellulose) (HPC)) was 156 % of control and 160 % of control and the T/C (dose: 220.0 micrograms/kg/injection, schedule: Q01DX009 (ip), vehicle: Klucel (hydroxypropylcellulose) (HPC)) was 161 % of control. For the same compound, the T/C (dose: 600.0 micrograms/kg/injection, schedule: Q01DX009 (ip), vehicle: Klucel (hydroxypropylcellulose) (HPC)) was 102 % of control.
With N#CCCc1ccc(O)cc1 the T/C (dose: 50.0 mg/kg/injection, schedule: Q01DX009 (ip), vehicle: gum acacia) was 100 % of control, the T/C (dose: 100.0 mg/kg/injection, schedule: Q01DX009 (ip), vehicle: gum acacia) was 107 % of control and the T/C (dose: 100.0 mg/kg/injection, schedule: Q04DX003 (ip), vehicle: gum acacia) was 97 % of control. For the same compound, the T/C (dose: 200.0 mg/kg/injection, schedule: Q01DX009 (ip), vehicle: gum acacia) was 93 % of control and the T/C (dose: 200.0 mg/kg/injection, schedule: Q04DX003 (ip), vehicle: gum acacia) was 97 % of control.
In the case of COC1CCC(/C(C#N)=C/C2CCC(NC(C)=O)CC2)CC1 (stereo unspecified), the T/C (dose: 100.0 mg/kg/injection, schedule: Q04DX002 (ip), vehicle: saline with Tween-80) is reported as 101 % of control, the T/C (dose: 200.0 mg/kg/injection, schedule: Q04DX002 (ip), vehicle: saline with Tween-80) is reported as 105 % of control and the T/C (dose: 400.0 mg/kg/injection, schedule: Q04DX002 (ip), vehicle: saline with Tween-80) is reported as 94 % of control.
For OCCOc1c(Cl)c(Cl)c(Cl)c(Cl)c1Cl, the T/C (dose: 50.0 mg/kg/injection, schedule: Q01DX009 (ip), vehicle: saline with Tween-80) was 101 % of control, the T/C [7] was 94 % of control and the T/C [4] was 102 % of control. The T/C [8] was 103 % of control and the T/C [5] was 97 % of control.
With NC(CCl)C(=O)O (stereo unspecified) the T/C (dose: 6.25 mg/kg/injection, schedule: Q01DX001 (ip), vehicle: saline) was 103 % of control, the T/C [1] was 101 % of control and the T/C [2] was 103 % of control. For the same compound, the T/C [3] was 97 % of control, the T/C [9] was 92 % of control and the T/C [10] was 90 % of control.
CCO[Si](C)(C)CCl was tested, and the T/C [9] was 98 % of control, the T/C [10] was 101 % of control and the T/C (dose: 400.0 mg/kg/injection, schedule: Q01DX001 (ip), vehicle: saline) was 106 % of control.
With COc1ccc(C2CCc3cc(OC)c(OC)cc3C2NC=O)cc1OC (stereo unspecified) the T/C (dose: 40.0 mg/kg/injection, schedule: Q01DX009 (ip), vehicle: saline with Tween-80) was 90 % of control, the T/C (dose: 80.0 mg/kg/injection, schedule: Q01DX009 (ip), vehicle: saline with Tween-80) was 102 % of control and the T/C (dose: 120.0 mg/kg/injection, schedule: Q01DX009 (ip), vehicle: saline with Tween-80) was 93 % of control. For the same compound, the T/C (dose: 240.0 mg/kg/injection, schedule: Q01DX009 (ip), vehicle: saline with Tween-80) was 90 % of control and the T/C (dose: 360.0 mg/kg/injection, schedule: Q01DX009 (ip), vehicle: saline with Tween-80) was 87 % of control.
In the case of CCOC(=O)CCCN(c1sc(C)c(C)c1C(=O)OCC)S(=O)(=O)c1ccc(C)cc1, the T/C (dose: 50.0 mg/kg/injection, schedule: Q01DX009 (ip), vehicle: Klucel (hydroxypropylcellulose) (HPC)) is reported as 86 % of control, the T/C (dose: 50.0 mg/kg/injection, schedule: Q04DX003 (ip), vehicle: saline with Tween-80) is reported as 97 % of control and the T/C [11] is reported as 105 % of control. The T/C [4] was 97 % of control, the T/C [12] was 86 % of control and the T/C [5] was 97 % of control. For the same compound, the T/C (dose: 400.0 mg/kg/injection, schedule: Q01DX009 (ip), vehicle: Klucel (hydroxypropylcellulose) (HPC)) was 90 % of control and the T/C [6] was 101 % of control.
In the case of COC(=O)c1cccc(OC)c1, the T/C (dose: 50.0 mg/kg/injection, schedule: Q01DX001 (ip), vehicle: carboxymethylcellulose (CMC)) is reported as 102 % of control, the T/C (dose: 100.0 mg/kg/injection, schedule: Q01DX001 (ip), vehicle: carboxymethylcellulose (CMC)) is reported as 98 % of control and the T/C (dose: 200.0 mg/kg/injection, schedule: Q01DX001 (ip), vehicle: carboxymethylcellulose (CMC)) is reported as 104 % of control. The T/C (dose: 400.0 mg/kg/injection, schedule: Q01DX001 (ip), vehicle: carboxymethylcellulose (CMC)) was 93 % of control.
In the case of CC(=O)N(C)c1ccc(NC(=O)CCl)cc1, the T/C [11] is reported as 109 % of control and the T/C [12] is reported as 116 % of control.
For Cc1ccc(C(=O)C2CC2)c(C)c1, the T/C [7] was 105 % of control, the T/C [4] was 96 % of control and the T/C [8] was 98 % of control. For the same compound, the T/C [5] was 95 % of control, the T/C [13] was 109 % of control and the T/C [6] was 93 % of control.
NCCc1c[nH]c2ccccc12 was tested, and the T/C [3] was 104 % of control, the T/C [9] was 102 % of control and the T/C [4] was 104 % of control. For the same compound, the T/C [10] was 91 % of control, the T/C [5] was 93 % of control and the T/C [6] was 110 % of control.
With C[N+](C)(C)C12CCCCC1S(=O)(=O)C2 (stereo unspecified) the T/C (dose: 75.0 mg/kg/injection, schedule: Q01DX001 (ip), vehicle: saline) was 108 % of control.
In the case of COc1ccc(OC)c2c1C1C=CC2C1, the T/C (dose: 177.0 mg/kg/injection, schedule: Q01DX001 (ip), vehicle: other) is reported as 98 % of control, the T/C (dose: 266.0 mg/kg/injection, schedule: Q01DX001 (ip), vehicle: other) is reported as 94 % of control and the T/C (dose: 400.0 mg/kg/injection, schedule: Q01DX001 (ip), vehicle: other) is reported as 89 % of control. The T/C (dose: 600.0 mg/kg/injection, schedule: Q01DX001 (ip), vehicle: other) was 96 % of control.
For CCCCOCN1C(=O)N(COCCCC)C(=O)C(CC)(c2ccccc2)C1=O, the T/C [7] was 97 % of control, the T/C [8] was 94 % of control and the T/C [13] was 87 % of control.

— PubChem BioAssay AID248 (DTP/NCI, 2004)
